How the values were obtained:
Test in all cases: Spot-on-lawn inhibition assay
Format in all cases: cell-based
S. epidermidis = system: S. epidermidis; parameters: key: –: “−” = No inhibition; “+” = Unclear zone; “++” = zone < 1 cm; “+++” = zone ≥ 1 cm; settings: S. epidermidis LMG 3522; 5 µl at 1 mg/ml; n=3
Method: (§1) A semi-quantitative spot-on-lawn inhibitory assay was performed on 51 bacterial indicator strains (Table S1) to determine the bacteriocins inhibition spectra. Overnight cultures were diluted 1:100 in BHI soft agar and distributed on BHI agar plates. Once solidified, bacteriocins with various concentrations were applied on designated spots. The plates were incubated at appropriate temperature O/N and inhibition zones were measured the following day. To determine minimal inhibitory concentration (MIC50) of H1 against clinical S. haemolyticus isolates (Table S2), as well as strains heterologously expressing RseP (Table S4), the microtiterplate antimicrobial assay was performed as previously described[41],[79]. MIC50 was defined as the minimal bacteriocin concentration needs to inhibit the growth of a bacterial strain by at least 50%.

S. aureus = system: S. aureus; parameters: key: –: “−” = No inhibition; “+” = Unclear zone; “++” = zone < 1 cm; “+++” = zone ≥ 1 cm; settings: 5 µl at 1 mg/ml, n=3
Method: as §1

Staphylococcus arlettae = system: Staphylococcus arlettae; parameters: key: –: “−” = No inhibition; “+” = Unclear zone; “++” = zone < 1 cm; “+++” = zone ≥ 1 cm; settings: Staphylococcus arlettae LMG 4134; 5 µl at 1 mg/ml; n=3
Method: as §1

C. piscicola = system: C. piscicola; parameters: key: “-“ = No inhibition; “+” = Unclear zone; “++” = zone < 1 cm; “+++”= zone > 1 cm; settings: C. piscicola LMG 2332; 5 µl at 1 mg/ml; n=3
Method: as §1

Bacillus cereus = system: Bacillus cereus; parameters: key: “-“ = No inhibition; “+” = Unclear zone; “++” = zone < 1 cm; “+++”= zone > 1 cm; settings: 5 µl at 1 mg/ml, n=3
Method: as §1

Lactobacillus curvatus = settings: 5 µl at 1 mg/ml, n=3
Method: as §1

E. faecium = settings: 5 µl at 1 mg/ml, n=3
Method: as §1

S. homonis = S. homonis LMG 3129; 5 µl at 1 mg/ml; n=3
Method: as §1

L. monocytogenes = L. monocytogenes EDGe; 5 µl at 1 mg/ml; n=3
Method: as §1

[1] = system: Staphylococcus haemolyticus strains; parameters: key to Mutants observed after 24 h (mark *): *Mutants observed after 24 h; key to Average inhibition score: –: “−” = No inhibition; “+” = Unclear zone; “++” = zone < 1 cm; “+++” = zone ≥ 1 cm; settings: for Mutants observed after 24 h (mark *): spot of 5 μl at 1 mg/ml
Method: as §1

MLAKIKAMIKKFPNPYTLAAKLTTYEINWYKQQYGRYPWERPVA [EJ97, enterocin EJ97]
Average inhibition score (S. epidermidis): + | Average inhibition score (S. aureus; S. aureus LMG 3263): + | Average inhibition score (S. aureus; S. aureus LMG 3326): + | Average inhibition score (Staphylococcus arlettae): + | Average inhibition score (C. piscicola): - | Average inhibition score (Bacillus cereus; B. cereus LMG 2711): - | Average inhibition score (Bacillus cereus; B. cereus LMG 2731): - | Average inhibition score (Bacillus cereus; Bacillus cereus LMG 2805): - | Average inhibition score (Lactobacillus curvatus; L. curvatus LMG 2353): +++ (“+++”= zone > 1 cm) | Average inhibition score (Lactobacillus curvatus; Lactobacillus curvatus LTH 1174): +++ (“+++”= zone > 1 cm) | Average inhibition score (E. faecium; E. faecium AL41): +++ (“+++”= zone > 1 cm) | Average inhibition score (E. faecium; E. faecium L50): +++ (“+++”= zone > 1 cm) | Average inhibition score (E. faecium; E. faecium P13): +++ (“+++”= zone > 1 cm) | Average inhibition score (E. faecium; E. faecium P21): +++ (“+++”= zone > 1 cm) | Average inhibition score (S. homonis): +++ (“+++”= zone > 1 cm) | Average inhibition score (L. monocytogenes): +++ (“+++”= zone > 1 cm) | Average inhibition score ([1]; S. haemolyticus 4068, 5 μl at 1 mg/ml, n = 3): ++ (“++” = zone < 1 cm) | Mutants observed after 24 h (mark *) ([1]; S. haemolyticus 4068): * | Average inhibition score ([1]; S. haemolyticus 4069, 5 μl at 1 mg/ml, n = 3): ++ (“++” = zone < 1 cm) | Mutants observed after 24 h (mark *) ([1]; S. haemolyticus 4069): * | Average inhibition score ([1]; S. haemolyticus 4070, 5 μl at 1 mg/ml, n = 3): ++ (“++” = zone < 1 cm) | Mutants observed after 24 h (mark *) ([1]; S. haemolyticus 4070): * | Average inhibition score ([1]; S. haemolyticus 4071, 5 μl at 1 mg/ml, n = 3): ++ (“++” = zone < 1 cm) | Mutants observed after 24 h (mark *) ([1]; S. haemolyticus 4071): * | Average inhibition score ([1]; S. haemolyticus 4072, 5 μl at 1 mg/ml, n = 3): ++ (“++” = zone < 1 cm) | Mutants observed after 24 h (mark *) ([1]; S. haemolyticus 4072): * | Average inhibition score ([1]; S. haemolyticus 4073, 5 μl at 1 mg/ml, n = 3): ++ (“++” = zone < 1 cm) | Mutants observed after 24 h (mark *) ([1]; S. haemolyticus 4073): * | Average inhibition score ([1]; S. haemolyticus 7067_4_21, 5 μl at 1 mg/ml, n = 3): ++ (“++” = zone < 1 cm) | Mutants observed after 24 h (mark *) ([1]; S. haemolyticus 7067_4_21): * | Average inhibition score ([1]; S. haemolyticus 7067_4_28, 5 μl at 1 mg/ml, n = 3): +++ (“+++” = zone ≥ 1 cm) | Mutants observed after 24 h (mark *) ([1]; S. haemolyticus 7067_4_28): * | Average inhibition score ([1]; S. haemolyticus 7067_4_39, 5 μl at 1 mg/ml, n = 3): + | Average inhibition score ([1]; S. haemolyticus 7067_4_48, 5 μl at 1 mg/ml, n = 3): + | Average inhibition score ([1]; S. haemolyticus 7067_4_49, 5 μl at 1 mg/ml, n = 3): ++ (“++” = zone < 1 cm) | Mutants observed after 24 h (mark *) ([1]; S. haemolyticus 7067_4_49): * | Average inhibition score ([1]; S. haemolyticus 7067_4_56, 5 μl at 1 mg/ml, n = 3): ++ (“++” = zone < 1 cm) | Mutants observed after 24 h (mark *) ([1]; S. haemolyticus 7067_4_56): * | Average inhibition score ([1]; S. haemolyticus 7067_4_60, 5 μl at 1 mg/ml, n = 3): +++ (“+++” = zone ≥ 1 cm) | Mutants observed after 24 h (mark *) ([1]; S. haemolyticus 7067_4_60): * | Average inhibition score ([1]; S. haemolyticus 7067_4_66, 5 μl at 1 mg/ml, n = 3): ++ (“++” = zone < 1 cm) | Mutants observed after 24 h (mark *) ([1]; S. haemolyticus 7067_4_66): * | Average inhibition score ([1]; S. haemolyticus 7067_4_67, 5 μl at 1 mg/ml, n = 3): ++ (“++” = zone < 1 cm) | Mutants observed after 24 h (mark *) ([1]; S. haemolyticus 7067_4_67): * | Average inhibition score ([1]; S. haemolyticus 7067_4_71, 5 μl at 1 mg/ml, n = 3): +++ (“+++” = zone ≥ 1 cm) | Mutants observed after 24 h (mark *) ([1]; S. haemolyticus 7067_4_71): * | Average inhibition score ([1]; S. haemolyticus 7067_4_84, 5 μl at 1 mg/ml, n = 3): ++ (“++” = zone < 1 cm) | Mutants observed after 24 h (mark *) ([1]; S. haemolyticus 7067_4_84): * | Average inhibition score ([1]; S. haemolyticus 7068_7_63, 5 μl at 1 mg/ml, n = 3): ++ (“++” = zone < 1 cm) | Mutants observed after 24 h (mark *) ([1]; S. haemolyticus 7068_7_63): * | Average inhibition score ([1]; S. haemolyticus LMG 4133, 5 µl at 1 mg/ml, n=3): ++ (“++” = zone < 1 cm) | Average inhibition score ([1]; S. haemolyticus SH01, 5 μl at 1 mg/ml, n = 3): +++ (“+++” = zone ≥ 1 cm) | Mutants observed after 24 h (mark *) ([1]; S. haemolyticus SH01): * | Average inhibition score ([1]; S. haemolyticus SH04, 5 μl at 1 mg/ml, n = 3): +++ (“+++” = zone ≥ 1 cm) | Mutants observed after 24 h (mark *) ([1]; S. haemolyticus SH04): * | Average inhibition score ([1]; S. haemolyticus SH09, 5 μl at 1 mg/ml, n = 3): + | Average inhibition score ([1]; S. haemolyticus SH10, 5 μl at 1 mg/ml, n = 3): +++ (“+++” = zone ≥ 1 cm) | Mutants observed after 24 h (mark *) ([1]; S. haemolyticus SH10): * | Average inhibition score ([1]; S. haemolyticus SH14, 5 μl at 1 mg/ml, n = 3): ++ (“++” = zone < 1 cm) | Mutants observed after 24 h (mark *) ([1]; S. haemolyticus SH14): * | Average inhibition score ([1]; S. haemolyticus SH20, 5 μl at 1 mg/ml, n = 3): ++ (“++” = zone < 1 cm) | Mutants observed after 24 h (mark *) ([1]; S. haemolyticus SH20): * | Average inhibition score ([1]; S. haemolyticus SH46, 5 μl at 1 mg/ml, n = 3): ++ (“++” = zone < 1 cm) | Mutants observed after 24 h (mark *) ([1]; S. haemolyticus SH46): * | Average inhibition score ([1]; S. haemolyticus SH47, 5 μl at 1 mg/ml, n = 3): +++ (“+++” = zone ≥ 1 cm) | Mutants observed after 24 h (mark *) ([1]; S. haemolyticus SH47): * | Inhibition zones at three concentrations ([1]; six S. haemolyticus strains 4068–4073, 0.04, 0.2 and 1.0 mg/ml, 5 µl spotted): some inhibition was seen only at the highest concentration
